Data on three compounds can be found in ChEMBL document CHEMBL5696442, “Discovery of type II inhibitors of TGFβ-activated kinase 1 (TAK1) and mitogen-activated protein kinase kinase kinase kinase 2 (MAP4K2)” (J Med Chem, 2015).

Active and inactive are the calls of the source. No cut-off for these calls is given here.

Experiment [1] concerns the target Tyrosine-protein kinase TXK (Homo sapiens) (UniProt P42681). In words: Inhibition of TXK (unknown origin) at 1 uM by Ambit Kinomescan binding assay relative to control.
In experiment [2] the target is Bone morphogenetic protein receptor type-1A (Homo sapiens) (UniProt P36894). In words: Inhibition of BMPR1A (unknown origin) at 1 uM by Ambit Kinomescan binding assay relative to control; values are per cent of control.
Experiment [3] deals with Serine/threonine-protein kinase SIK1 (Homo sapiens) (UniProt P57059). In words: Inhibition of SIK (unknown origin) at 1 uM by Ambit Kinomescan binding assay relative to control.
Experiment [4] addresses Ribosomal protein S6 kinase alpha-5 (Homo sapiens) (UniProt O75582). In words: Inhibition of N-terminal RPS6KA5 kinase domain 1 (unknown origin) at 1 uM by Ambit Kinomescan binding assay relative to control.
In experiment [5] the test system is Epidermal growth factor receptor (Homo sapiens), P00533 [G719S]. In words: Inhibition of EGFR G719S mutant (unknown origin) at 1 uM by Ambit Kinomescan binding assay relative to control.
The subject of experiment [6] is Tyrosine-protein kinase ABL1 (Homo sapiens), P00519 [T315I]. In words: Inhibition of nonphosphorylated ABL1 T315I mutant (unknown origin) at 1 uM by Ambit Kinomescan binding assay relative to control.
For experiment [7], the target named is Tyrosine-protein kinase ABL1 (Homo sapiens, UniProt P00519). Put plainly: Inhibition of nonphosphorylated ABL1 (unknown origin) at 1 uM by Ambit Kinomescan binding assay relative to control.
For experiment [8], the target named is T1, Mitogen-activated protein kinase kinase kinase 3 (Homo sapiens) (UniProt Q99759).
T1 sequence (whole entry): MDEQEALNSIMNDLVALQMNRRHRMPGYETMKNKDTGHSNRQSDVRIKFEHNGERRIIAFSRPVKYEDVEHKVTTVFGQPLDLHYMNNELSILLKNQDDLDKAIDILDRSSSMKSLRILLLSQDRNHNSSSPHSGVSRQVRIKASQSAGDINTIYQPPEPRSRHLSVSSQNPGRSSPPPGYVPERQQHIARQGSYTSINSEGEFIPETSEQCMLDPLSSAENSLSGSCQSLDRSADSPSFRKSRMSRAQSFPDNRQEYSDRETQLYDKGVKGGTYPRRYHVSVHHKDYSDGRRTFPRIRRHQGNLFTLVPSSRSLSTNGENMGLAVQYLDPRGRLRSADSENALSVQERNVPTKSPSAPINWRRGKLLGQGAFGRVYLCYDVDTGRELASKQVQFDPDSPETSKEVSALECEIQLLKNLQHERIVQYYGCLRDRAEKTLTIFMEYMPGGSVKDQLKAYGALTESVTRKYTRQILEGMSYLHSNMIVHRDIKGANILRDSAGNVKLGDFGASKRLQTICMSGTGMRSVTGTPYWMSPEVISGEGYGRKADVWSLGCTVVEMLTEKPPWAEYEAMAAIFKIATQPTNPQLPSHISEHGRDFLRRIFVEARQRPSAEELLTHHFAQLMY
Put plainly: Inhibition of MAP3K3 (unknown origin) at 10 uM by Ambit Kinomescan binding assay relative to control.

The target in experiment [9] is Mitogen-activated protein kinase kinase kinase 20 (Homo sapiens, UniProt Q9NYL2). Put plainly: Inhibition of ZAK K1 labeling site in human Huh-7 cells at 1 uM by KiNativ Profiling analysis relative to control. Format: cell-based.
Sequence of Mitogen-activated protein kinase kinase kinase 20 (Q9NYL2 2-800 limits assumed): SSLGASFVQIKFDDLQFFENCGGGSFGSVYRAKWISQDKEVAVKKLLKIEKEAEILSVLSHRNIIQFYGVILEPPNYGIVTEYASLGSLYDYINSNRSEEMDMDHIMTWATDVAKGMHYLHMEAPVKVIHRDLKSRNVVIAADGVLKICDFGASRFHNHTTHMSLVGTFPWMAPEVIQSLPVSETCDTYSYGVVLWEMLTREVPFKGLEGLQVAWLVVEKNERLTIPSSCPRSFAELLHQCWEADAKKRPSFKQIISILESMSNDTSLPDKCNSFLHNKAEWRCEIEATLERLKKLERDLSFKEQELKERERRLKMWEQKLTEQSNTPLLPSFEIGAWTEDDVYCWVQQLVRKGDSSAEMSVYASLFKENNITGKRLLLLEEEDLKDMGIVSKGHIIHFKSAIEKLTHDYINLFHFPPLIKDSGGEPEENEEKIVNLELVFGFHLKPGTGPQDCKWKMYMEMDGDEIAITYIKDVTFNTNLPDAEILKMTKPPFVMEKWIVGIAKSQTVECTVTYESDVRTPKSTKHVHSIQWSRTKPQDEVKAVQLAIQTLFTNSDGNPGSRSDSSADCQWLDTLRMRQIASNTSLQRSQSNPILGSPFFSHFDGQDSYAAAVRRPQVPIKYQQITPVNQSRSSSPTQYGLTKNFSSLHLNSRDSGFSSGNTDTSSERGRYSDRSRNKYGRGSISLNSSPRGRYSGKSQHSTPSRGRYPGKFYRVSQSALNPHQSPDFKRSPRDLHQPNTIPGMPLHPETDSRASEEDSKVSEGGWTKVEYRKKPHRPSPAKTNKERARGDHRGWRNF
The target in experiment [10] is Mitogen-activated protein kinase kinase kinase kinase 3 (Homo sapiens) (UniProt Q8IVH8). In words: Inhibition of MAP4K3 (unknown origin) at 10 uM by Ambit Kinomescan binding assay relative to control.
Sequence of Mitogen-activated protein kinase kinase kinase kinase 3 (Homo sapiens) (Q8IVH8 whole entry): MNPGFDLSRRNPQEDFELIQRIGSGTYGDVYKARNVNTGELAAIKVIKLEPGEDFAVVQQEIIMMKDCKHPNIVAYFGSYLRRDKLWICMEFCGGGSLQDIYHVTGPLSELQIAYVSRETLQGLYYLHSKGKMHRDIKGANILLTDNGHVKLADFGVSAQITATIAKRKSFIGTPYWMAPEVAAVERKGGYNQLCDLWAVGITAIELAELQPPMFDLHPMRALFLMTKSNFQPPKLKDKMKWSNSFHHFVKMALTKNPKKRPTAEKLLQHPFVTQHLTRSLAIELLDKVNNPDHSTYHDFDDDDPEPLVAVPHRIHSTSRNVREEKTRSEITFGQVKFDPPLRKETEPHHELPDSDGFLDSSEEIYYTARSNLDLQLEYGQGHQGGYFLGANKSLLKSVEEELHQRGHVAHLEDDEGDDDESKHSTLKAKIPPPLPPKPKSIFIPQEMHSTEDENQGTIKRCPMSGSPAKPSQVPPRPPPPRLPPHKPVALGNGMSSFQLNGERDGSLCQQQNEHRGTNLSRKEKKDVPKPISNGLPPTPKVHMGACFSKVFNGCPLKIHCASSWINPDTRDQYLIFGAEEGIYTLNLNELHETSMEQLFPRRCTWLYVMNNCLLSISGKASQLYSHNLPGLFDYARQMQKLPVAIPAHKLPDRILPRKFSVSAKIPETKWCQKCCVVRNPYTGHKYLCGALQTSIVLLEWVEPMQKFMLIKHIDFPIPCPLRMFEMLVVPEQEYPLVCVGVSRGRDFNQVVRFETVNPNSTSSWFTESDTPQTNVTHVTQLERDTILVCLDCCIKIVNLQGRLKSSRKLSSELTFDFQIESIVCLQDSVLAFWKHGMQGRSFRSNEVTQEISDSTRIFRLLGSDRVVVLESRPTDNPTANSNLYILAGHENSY
Experiment [11] in a line: Inhibition of KHS1/2 K2 labeling site in human Huh-7 cells at 1 uM by KiNativ Profiling analysis relative to control. The settings on record: condition cancer.
Experiment [12] relates to Epidermal growth factor receptor (Homo sapiens), P00533 [UNDEFINED MUTATION]. The settings on record: dose 10.0 µM.
The target of experiment [13] is RAC-alpha serine/threonine-protein kinase (Homo sapiens) (UniProt P31749). In words: Inhibition of AKT1 (unknown origin) at 10 uM by Ambit Kinomescan binding assay.
Sequence of RAC-alpha serine/threonine-protein kinase (Homo sapiens) (P31749 whole entry): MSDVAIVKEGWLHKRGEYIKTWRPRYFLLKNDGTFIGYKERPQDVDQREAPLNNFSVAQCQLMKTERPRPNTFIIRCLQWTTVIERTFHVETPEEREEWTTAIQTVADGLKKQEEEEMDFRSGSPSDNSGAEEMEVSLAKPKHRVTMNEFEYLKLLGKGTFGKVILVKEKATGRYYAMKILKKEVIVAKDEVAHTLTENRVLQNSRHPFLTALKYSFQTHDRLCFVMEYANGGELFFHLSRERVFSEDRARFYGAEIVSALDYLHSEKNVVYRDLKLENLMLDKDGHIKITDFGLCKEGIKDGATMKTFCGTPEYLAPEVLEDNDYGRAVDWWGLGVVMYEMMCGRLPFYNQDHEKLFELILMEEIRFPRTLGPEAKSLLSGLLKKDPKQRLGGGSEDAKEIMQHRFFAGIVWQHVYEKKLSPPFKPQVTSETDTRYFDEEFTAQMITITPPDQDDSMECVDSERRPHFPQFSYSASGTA
Experiment [14] concerns the target T2, Aurora kinase A (Homo sapiens) (UniProt O14965).
T2 sequence (whole entry): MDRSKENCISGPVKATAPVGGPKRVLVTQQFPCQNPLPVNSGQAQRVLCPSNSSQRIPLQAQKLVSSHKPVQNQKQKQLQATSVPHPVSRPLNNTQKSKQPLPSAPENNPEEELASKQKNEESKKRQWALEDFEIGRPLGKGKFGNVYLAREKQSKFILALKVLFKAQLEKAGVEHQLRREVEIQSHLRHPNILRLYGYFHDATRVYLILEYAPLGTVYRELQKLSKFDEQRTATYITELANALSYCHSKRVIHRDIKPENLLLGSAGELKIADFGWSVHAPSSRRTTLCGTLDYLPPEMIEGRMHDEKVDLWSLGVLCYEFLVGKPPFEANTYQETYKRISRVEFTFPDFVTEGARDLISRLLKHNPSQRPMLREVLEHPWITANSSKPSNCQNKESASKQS
In words: Inhibition of AurA K2 labeling site harbouring DIKPENLLLGSAGELK in human Huh-7 cells at 10 uM by KiNativ Profiling analysis relative to control. The class given is cell-based.

Experiment [15] can be described thus: Inhibition of MAP3K2/3 K2 labeling site in human Huh-7 cells at 1 uM by KiNativ Profiling analysis relative to control. The note with it: condition cancer.
Experiment [16] has as its system Mast/stem cell growth factor receptor Kit (Homo sapiens), P10721 [V559D,V654A]. In words: Inhibition of KIT V559D/V654A double mutant (unknown origin) at 10 uM by Ambit Kinomescan binding assay relative to control.
Experiment [17] addresses PKC alpha and beta-2 (Homo sapiens) (UniProt P17252+P05771). In words: Inhibition of PKCalpha/beta K2 labeling site in human Huh-7 cells at 1 uM by KiNativ Profiling analysis relative to control. The class given is cell-based.
In experiment [18] the target is Serine/threonine-protein kinase 10 (Homo sapiens) (UniProt O94804). In words: Inhibition of LOK Lys2 labeling site in human Huh-7 cells at 1 uM by KiNativ Profiling analysis relative to control. Format: cell-based.
Sequence of Serine/threonine-protein kinase 10 (Homo sapiens) (O94804 whole entry, looked up, the tested form may be a part): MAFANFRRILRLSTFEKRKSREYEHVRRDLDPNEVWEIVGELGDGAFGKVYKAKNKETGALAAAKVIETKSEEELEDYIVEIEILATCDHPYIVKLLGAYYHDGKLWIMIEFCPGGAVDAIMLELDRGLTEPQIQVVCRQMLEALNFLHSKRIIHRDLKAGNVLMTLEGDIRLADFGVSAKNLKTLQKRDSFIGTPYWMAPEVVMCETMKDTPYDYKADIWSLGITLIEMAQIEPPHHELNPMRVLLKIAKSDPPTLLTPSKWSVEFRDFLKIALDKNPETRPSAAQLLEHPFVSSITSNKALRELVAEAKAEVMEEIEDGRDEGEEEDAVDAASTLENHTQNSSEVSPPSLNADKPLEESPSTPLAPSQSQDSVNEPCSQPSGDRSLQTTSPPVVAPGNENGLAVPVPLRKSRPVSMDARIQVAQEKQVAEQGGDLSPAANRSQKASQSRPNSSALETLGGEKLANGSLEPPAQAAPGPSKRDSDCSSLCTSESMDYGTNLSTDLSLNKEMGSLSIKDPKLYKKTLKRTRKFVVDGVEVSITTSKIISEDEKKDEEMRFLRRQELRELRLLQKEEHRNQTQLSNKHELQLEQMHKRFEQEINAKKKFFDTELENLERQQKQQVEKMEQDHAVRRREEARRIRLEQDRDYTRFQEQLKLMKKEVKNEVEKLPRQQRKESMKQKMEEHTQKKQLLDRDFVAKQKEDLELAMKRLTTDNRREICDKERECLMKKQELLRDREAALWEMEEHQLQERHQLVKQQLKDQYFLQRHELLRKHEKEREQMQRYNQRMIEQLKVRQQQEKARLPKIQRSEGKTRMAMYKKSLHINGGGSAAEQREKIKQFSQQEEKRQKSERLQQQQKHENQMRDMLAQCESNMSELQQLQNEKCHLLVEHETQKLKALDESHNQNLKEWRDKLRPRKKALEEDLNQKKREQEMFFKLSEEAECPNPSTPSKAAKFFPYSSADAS
Experiment [19] has as its target Ribosomal protein S6 kinase alpha-3 (Homo sapiens) (UniProt P51812). Put plainly: Inhibition of RSK2 domain2 Lys2 labeling site harbouring TVEYLHAQGVVHRDLKPSNILYVDESGNPESIR in human Huh-7 cell lysate at 1 uM by KiNativ Profiling analysis relative to control. Format: subcellular.
The target of experiment [20] is Mitogen-activated protein kinase 8 (Homo sapiens, UniProt P45983). In words: Inhibition of JNK1 Lys2 labeling site in human Huh-7 cells at 1 uM by KiNativ Profiling analysis relative to control. Format: cell-based.
Sequence of Mitogen-activated protein kinase 8 (P45983 whole entry): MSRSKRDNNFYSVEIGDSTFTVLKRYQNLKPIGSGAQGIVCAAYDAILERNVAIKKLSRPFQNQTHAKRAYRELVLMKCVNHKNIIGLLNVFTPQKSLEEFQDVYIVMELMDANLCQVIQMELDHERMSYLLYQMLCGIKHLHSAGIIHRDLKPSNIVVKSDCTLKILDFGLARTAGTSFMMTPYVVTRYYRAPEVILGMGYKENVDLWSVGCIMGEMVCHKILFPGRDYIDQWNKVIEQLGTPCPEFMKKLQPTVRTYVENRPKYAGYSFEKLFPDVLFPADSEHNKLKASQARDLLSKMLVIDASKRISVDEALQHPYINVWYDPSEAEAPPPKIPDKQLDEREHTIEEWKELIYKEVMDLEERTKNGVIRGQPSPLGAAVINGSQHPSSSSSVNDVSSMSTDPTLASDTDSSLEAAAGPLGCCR
Experiment [21] has as its target Serine/threonine-protein kinase Nek6 (Homo sapiens) (UniProt Q9HC98). In words: Inhibition of NEK6 Lys2 labeling site harbouring DIKPANVFITATGVVK in human Huh-7 cell lysate at 1 uM by KiNativ Profiling analysis relative to control. The class given is subcellular.
Experiment [22] has as its target Serine/threonine-protein kinase 26 (Homo sapiens) (UniProt Q9P289). In words: Inhibition of MST4 Lys2 labeling site in human Huh-7 cells at 1 uM by KiNativ Profiling analysis relative to control. Format: cell-based.

Sequence of Serine/threonine-protein kinase 26 (Homo sapiens) (Q9P289 2-416 limits assumed): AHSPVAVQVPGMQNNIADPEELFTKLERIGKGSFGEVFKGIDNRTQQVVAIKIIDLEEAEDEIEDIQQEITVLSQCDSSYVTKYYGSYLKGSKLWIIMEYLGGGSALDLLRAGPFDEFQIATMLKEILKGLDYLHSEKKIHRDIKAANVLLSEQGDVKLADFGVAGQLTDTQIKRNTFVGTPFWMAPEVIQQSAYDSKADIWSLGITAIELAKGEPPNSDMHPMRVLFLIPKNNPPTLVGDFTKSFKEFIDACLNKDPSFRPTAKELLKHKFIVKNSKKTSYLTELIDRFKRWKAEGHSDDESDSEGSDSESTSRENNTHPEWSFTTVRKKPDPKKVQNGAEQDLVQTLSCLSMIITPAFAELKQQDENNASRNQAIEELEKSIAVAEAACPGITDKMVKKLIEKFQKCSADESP
Sequence of Mast/stem cell growth factor receptor Kit (Homo sapiens), P10721 [V559D,V654A] (P10721 whole entry V559D/V654A): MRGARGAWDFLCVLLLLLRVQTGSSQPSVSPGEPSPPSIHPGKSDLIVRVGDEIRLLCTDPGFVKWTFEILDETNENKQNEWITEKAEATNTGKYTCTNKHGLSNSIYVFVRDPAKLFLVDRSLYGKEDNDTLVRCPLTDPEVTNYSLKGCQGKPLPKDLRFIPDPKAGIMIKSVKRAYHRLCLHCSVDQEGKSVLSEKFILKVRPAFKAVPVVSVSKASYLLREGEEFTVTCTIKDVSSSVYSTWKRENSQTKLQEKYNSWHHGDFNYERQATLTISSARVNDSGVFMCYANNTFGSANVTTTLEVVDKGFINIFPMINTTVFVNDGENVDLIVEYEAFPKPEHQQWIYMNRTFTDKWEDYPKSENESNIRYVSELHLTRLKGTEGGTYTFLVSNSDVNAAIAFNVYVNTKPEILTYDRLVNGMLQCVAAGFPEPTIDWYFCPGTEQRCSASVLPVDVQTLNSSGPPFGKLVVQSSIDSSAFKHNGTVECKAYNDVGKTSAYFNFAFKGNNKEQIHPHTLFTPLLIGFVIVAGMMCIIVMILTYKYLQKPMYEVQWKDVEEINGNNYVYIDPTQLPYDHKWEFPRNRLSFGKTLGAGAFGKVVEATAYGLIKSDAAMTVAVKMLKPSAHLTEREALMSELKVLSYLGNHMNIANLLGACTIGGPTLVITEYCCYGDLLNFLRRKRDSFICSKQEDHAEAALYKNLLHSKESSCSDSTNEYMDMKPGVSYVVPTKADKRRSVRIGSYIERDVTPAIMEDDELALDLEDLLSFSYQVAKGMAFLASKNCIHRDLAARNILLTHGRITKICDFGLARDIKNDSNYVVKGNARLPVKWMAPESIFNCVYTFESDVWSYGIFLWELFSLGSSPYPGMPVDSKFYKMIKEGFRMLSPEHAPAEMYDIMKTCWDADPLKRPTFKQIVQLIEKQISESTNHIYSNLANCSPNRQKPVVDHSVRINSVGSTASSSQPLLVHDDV

By inhibition is commonly meant the relative decrease from the control value, in per cent. The term residual activity denotes what remains of the control signal, in per cent. High values mean much activity left, low ones little activity left. Turning to `CCN1CCN(Cc2ccc(NC(=O)c3ccc(C)c(/C=C/c4cnc5[nH]ccc5c4OC)c3)cc2C(F)(F)F)CC1`, the inhibition in [1] was determined as 1.4%; in [3], 2.1%; in experiment [4] it was 62%; in experiment [5], 0.9%; in experiment [6], 11%; in experiment [7] it was 0%. Besides, the residual activity in experiment [2] amounted to 100%.

On to `CCN1CCN(Cc2ccc(NC(=O)c3ccc(C)c(Oc4ccnc5[nH]ccc45)c3)cc2C(F)(F)F)CC1`, for which the inhibition in experiment [8] turned out to be 12%; in [9] it was 50.3%; in [10], 18%; in experiment [12], 1.2%; in [14], 9.4%; in experiment [16], 2.7%. In [17], the inhibition came to 8.8%. Besides, the values for the inhibition at 1 µM in experiment [11] and in experiment [15] were 6.6% and 7.4%, respectively. Besides, the inhibition result in experiment [13] is “inactive”.

As for `CNc1cc(Oc2cc(C(=O)Nc3cc(N4CCN(C)CC4)cc(C(F)(F)F)c3)ccc2C)ncn1`, the inhibition in experiment [18] was 19%; in experiment [19], 11.6%; in experiment [20] it was 14.5%; in experiment [21] it was -5%; in experiment [22], 25.2%.
